This note sets out measurements from patent US20050113348A1, “Vitamin D and vitamin D analogs or derivatives as new anti-hypertensive agents” (priority 2003, published 2005).

Series [1] relates to 4.1 kb renin gene promoter (Ren-1c), As4.1-hVDR cells. The series is described as follows: Renin gene promoter luciferase reporter assay in As4.1-hVDR cells. Type of series: cell-based, mouse. The note with it: 10^−8 M. An excerpt:
As4.1-hVDR cells were transfected with pGL-4.1 kb-Luc, and treated with ethanol (E), 10^−8 M of 1,25(OH)2D3 (VD3) and different analogues as indicated.
A. Expression of hVDR mRNA in stable As4.1 clones. P, parental As4.1 cells; #57, As4.1 clone 57 stably transfected with pcDNA-hVDR; V, As4.1 clone stably transfected with the empty vector pcDNA3.1. B. Renin mRNA expression in As4.1 clone V (Vector) and #57 treated with ethanol (E) or different doses of 1,25(OH)2D3 as indicated. c. As4.1-hVDR cells (clone #57) were transfected with pGL3-Control, pGL-4.1 kb or pGL-117 bp luciferase reporter plasmid and then treated with ethanol (closed bar) or 10^−8 M of 1,25(OH)2D3 (open bar). Luciferase activity was determined 48 hr after transfection. Similar results were obtained in other stable clones.
Renin gene promoter analysis. Plasmid pR1C-4.1 CAT that contains 4.1 kb 5′-flanking sequence of mouse Ren-1^c gene (Petrovic et al. 1996) was provided by Dr. K. W. Gross (Roswell Park Cancer Institute, Buffalo, N.Y.). To generate pGL-117 bp reporter plasmid, the 123 bp renin minimal promoter fragment (+6 to −117) was released from pR1C-4.1 CAT with XbaI and BamHI and inserted into the HindIII site of pGL3-basic vector (Promega, Madison, Wis.). To generate pGL-4.1 kb reporter plasmid, the BamHI fragment (−4.1 kb to −118 bp) from pRI C-4.1 CAT was inserted into the BglII site of pGL-117 bp. To analyze the activity of renin gene promoter, As4.1-hVDR cells were transfected with the reporter plasmids by electroporation according to Shi et al. (2001) using a Bio-Rad Gene Pulser (Bio-Rad, Hercules, Calif.). pCMV-β-gal plasmid was co-transfected as an internal control. pGL3-control plasmid (Promega) was used as the positive control. The transfected cells were treated with ethanol or 10^−8 M of 1,25(OH)2D3 in Opti-MEM medium (Invitrogen) containing 2% charcoal-treated FBS four hr after electroporation, and luciferase activity was determined at 48 hr after initial transfection, using the Luciferase Assay System (Promega). Luciferase activity was normalized to β-gal activity obtained from the same electroporation, and presented as fold induction based on the basal activity of pGL3-basic empty vector determined in the same experiment.
In general terms: Reporter assays use an easily measured gene product as a stand-in for the process of interest.

A short description of series [2]: Blood ionized calcium and survival of treated mice. The note with it: normal mice. Type of series: in vivo, mouse. The source says:
Two-month old wildtype mice were fed the normal diet supplemented with 2.5% strontium chloride for 7 weeks before sacrifice. A. Northern blot analysis of renin mRNA expression in the kidney from non-treated and strontium-treated wildtype mice. Each lane represents an individual animal. B. Quantitative results of the northern analysis. C. Blood ionized calcium concentration determined at the end of the treatment (n=5 in each group). In both b and c, NT, non-treated; STR, strontium-treated, *, P<0.01 vs. NT value.
(A) Blood ionized calcium levels. Normal mice (n=5) were treated with vehicle (control), 1,25(OH)2D3 (VD3) or compound #9 at a daily dose of 1.5 μg/kg body weight for one week. […] (B) Renin mRNA levels in the kidneys of treated mice, as determined by quantitative Northern blots. *, P<0.01.
Measurement of blood and urine parameters. The concentration of blood ionized calcium was determined using a Ciba/Coming 634 Ca^++/pH analyzer (Chiron Diagnostics, East Walpole, Mass.) from 50 μl of whole blood obtained from tail snipping. Blood glucose concentrations were determined by using One Touch Sure Step test strips (Life Scan, Milpitas, Calif.). Serum intact parathyroid hormone (iPTH) was determined using a commercial ELISA kit (Immutopics, San Clemente, Calif.). The concentration of serum and urinary Na^+, K^+, and creatinine was determined by a Beckman Coulter CX5 Autoanalyzer as described by Li et al. (2001).

Take `C=C1/C(=C\C=C2/CCC[C@]3(C)[C@@H]([C@H](C)CCCC(C)(C)O)CC[C@@H]23)C[C@@H](O)C[C@@H]1O` [1,25-dihydroxyvitamin D3]: in series [1] (As4.1-hVDR cells), the “Effect on the activity of the SV40 promoter in pGL3-Control plasmid” value was “no effect”. The “Reduction of the activity of the 4.1 kb renin gene promoter” value in series [1] (pGL-4.1 kb, luciferase at 48 hr after transfection) is recorded as “more than 80%”. Moreover, the “Deaths on day 7” value in series [2] (daily dose 1.5 μg/kg body weight) was 2 animals out of the 5 mice. Moreover, the Blood calcium level result in series [2] (daily dose 1.5 μg/kg body weight for one week) is listed as “severe hypercalcemia”.
